US5840697A, “Peptide inhibitors of calmodulin” (Torrey Pines Institute for Molecular Studies, priority 1996, dated 1998)
Read-outs that look alike come from different tables or passages of the source. Square brackets hold non-standard residues; d marks the D form. Peptide text beside a SMILES is read from it.

Experiments:
calmodulin = calmodulin (Homo sapiens, UniProt P0DP23); experiment: calcium-dependent phosphodiesterase assay (calmodulin activity); format: biochemical
Summary of the method: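 Calmodulin (5 units) stimulation of Ca2+-activated phosphodiesterase measured by coupling cAMP→5'-AMP to 5'-nucleotidase, with released Pi read at 660 nm after ammonium molybdate reaction.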

[1] = tested on: normal rat kidney (NRK) cells; experiment: DNA synthesis ([3H]-thymidine incorporation) in cell culture; format: cell-based; details: added at 5 hr
Method: Following the methods described in Lopez-Girona et al., Cell Calcium, 18:30-40 (1995), which is incorporated herein by reference, the effect of calmodulin inhibitory peptides on DNA synthesis was investigated. Specifically, peptides were added to culture media and assessed for their ability to inhibit the progression of normal rat kidney (NRK) cells into the S phase of the cell cycle; the DNA synthesis phase into the cell growth cycle. Such inhibition has been shown for existing anti-calmodulin drugs such as W13.
NRK cells were made quiescent by growing them to confluence in Dulbecco's minimum essential medium supplemented with 5% fetal calf serum (FCS), and then kept for 3-4 days in the same medium but with only 0.5% FCS. To allow them to re-enter the cell cycle, quiescent cells were trypsinized and subcultured at a lower density in fresh medium supplemented with 5% FCS.
DNA synthesis was analyzed by the measurement of [^3 H]-thymidine into whole cell DNA. NRK cells (10^5 per 35 mm plate) were pulse labeled for 1 hr with [methyl-^3 H]-thymidine (5 Ci/mmol) at 4 μCi/ml in Dulbecco's minimum essential medium supplemented with 5% FCS. Precipitation and solubilization of DNA was carried out as described in Cripps-Wolfman et al., J. Biol. Chem., 264:19478-19486 (1989), which is incorporated herein by reference.
The NRK cells stimulated to proliferate by addition of 5% FCS enter synchronously into the cell cycle and start the S phase after 12 hr reaching a maximum between 18 to 20 hr. The peptides were added at 5 hr (time at which the cells have already reenter the G1 phase). […] Similar results were found between the (D)-amino acid peptides and their (L)-counterpart.

IC50 (calmodulin; Table I, assayed at 75, 50 and 12.5 μM, average of repeated assays, read-out: Average IC50): 5.4 µM
IC50 (calmodulin; Table III, in the presence of calmodulin, read-out: IC50 (μM) for calmodulin): 7.1 µM
SPECIFICITY (calmodulin; comparison of IC50 for phosphodiesterase with IC50 for calmodulin): 17
Compound: CC[C@@H](C)[C@@H](NC(=O)[C@@H](CCCNC(=N)N)NC(=O)[C@@H](Cc1c[nH]c2ccccc12)NC(=O)[C@@H](CC(C)C)NC(C)=O)C(=O)N[C@H](CC(C)C)C(=O)N[C@H](Cc1c[nH]c2ccccc12)C(N)=O [Ac-(D)Leu-(D)Trp-(D)Arg-(D)Ile-(D)Leu-(D)Trp-NH2] (Ac-[dL][dW][dR][dI][dL][dW]-NH2)
% DNA SYNTHESIS ([1]; 7.5 μM): 59%
% DNA SYNTHESIS ([1]; 15 μM): 25%
